Reference: patent publication US8030547B2, “Gene coding for acetolactate synthase” (priority 2002, dated 2011)

Assays:
[1] = target: T1, mutant ALS protein of Vg line (Oryza sativa subsp. japonica, UniProt Q6K2E8); assay: Herbicide sensitivity of partially purified ALS protein (ALS activity inhibition), Vg line; type: biochemical, Oryza sativa var. Kinmaze; details: read-out: I50 (nM) Vg; partially purified ALS, 30° C., probit analysis
T1 construct: other: partially purified ALS, 30° C., probit analysis
T1 sequence (Q6K2E8 whole entry W548L, form open): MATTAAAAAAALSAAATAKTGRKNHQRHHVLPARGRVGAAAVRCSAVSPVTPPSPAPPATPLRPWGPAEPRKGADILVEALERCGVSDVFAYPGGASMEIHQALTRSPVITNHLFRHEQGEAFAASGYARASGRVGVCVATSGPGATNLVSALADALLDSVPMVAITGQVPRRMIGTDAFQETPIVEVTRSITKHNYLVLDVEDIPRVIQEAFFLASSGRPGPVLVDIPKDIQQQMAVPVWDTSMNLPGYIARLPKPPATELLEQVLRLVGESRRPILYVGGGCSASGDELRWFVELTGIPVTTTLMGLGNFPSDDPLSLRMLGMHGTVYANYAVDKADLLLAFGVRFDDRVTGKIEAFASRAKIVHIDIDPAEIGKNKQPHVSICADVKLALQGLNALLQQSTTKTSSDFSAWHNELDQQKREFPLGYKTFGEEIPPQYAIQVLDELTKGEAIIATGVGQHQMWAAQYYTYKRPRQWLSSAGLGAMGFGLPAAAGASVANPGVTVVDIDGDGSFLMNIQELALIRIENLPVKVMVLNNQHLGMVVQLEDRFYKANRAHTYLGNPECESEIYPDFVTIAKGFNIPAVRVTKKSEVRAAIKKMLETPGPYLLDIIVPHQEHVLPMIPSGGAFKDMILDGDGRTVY
Procedure: (§1) First, 200 g or more of resistant mutant was prepared by a liquid culture method (no supplementation with bispyribac-sodium), using a composition as shown in Table 3 excluding Gelrite. Then, about 150 g of the resistant mutant was homogenized using Hiscotron in a volume of buffer-1 [100 mM potassium phosphate buffer (pH 7.5) containing 20% (v/v) glycerol, […] thiamin pyrophosphate (TPP), 10 μM flavin adenine dinucleotide (FAD), 0.5 mM MgCl2, and a volume of polyvinyl polypyrrolidone one-tenth that of tissue volume] 3-fold greater than tissue volume. The homogenate was filtered through nylon gauze, and then centrifuged at 15000×g for 20 minutes. Ammonium sulfate was added to the centrifuged supernatant to 50% saturation, and then allowed to stand in ice for approximately 1 hour. The mixture was again centrifuged at 15000×g for 20 minutes, and then the precipitated fraction was dissolved in approximately 30 ml of buffer-2 [10 mM Tris hydrochloric acid buffer (pH 7.5) containing 20% (v/v) glycerol, 0.5 mM TPP and 0.5 mM MgCl2]. The mixture was again centrifuged at 15000×g for 20 minutes, and then the supernatant fraction was applied to a Sephadex G-25 (Amersham Bioscience). About 40 ml of the fraction that had passed through the column was collected as a crude enzyme solution.
(§2) Next, the protein concentration of the crude enzyme solution was measured by the Bradford method according to the manual of Bio-Rad Protein Assay. The crude enzyme solution was then filtered through a Whatman filter (Whatman), and then the crude enzyme solution in an appropriate protein amount (10 to 15 ml) was applied to three vertically-connected HiTrap Q columns (Amersham Bioscience) using a FPLC device (Amersham Bioscience). After protein component was adsorbed using HiTrap Q, unadsorbed fractions were washed out using buffer-2 having a volume 3 to 5 fold greater than the bed volume. Then, the adsorbed protein component was eluted using an eluate having a volume 10 fold greater than the bed volume (150 ml). Here, the eluate was prepared by dissolving KCl with a linear concentration gradient (0 to 0.4 M) into buffer-2. The eluate containing the eluted protein component was apportioned, 5 ml each, into a plurality of test tubes for apportioning. Further, to stabilize ALS protein contained in the eluted protein component, 0.5 ml of buffer-2 containing 20 mM sodium pyruvate had been previously added to each test tube for apportioning.
(§3) ALS activity resulting from the mutant ALS protein contained in the eluted fractions apportioned into each test tube for apportioning was measured as follows. A reaction solution to be used in a measurement reaction was prepared by mixing an eluted fraction to be measured with a solution comprising 20 mM sodium pyruvate, 0.5 mM TPP, 0.5 mM MgCl2, 10 μM FAD and 20 mM potassium phosphate buffer (pH 7.5). One ml of this reaction solution was used. After the eluted fraction to be measured was added, the measurement reaction was performed at 30° C. for 40 to 60 minutes. Then, the reaction was stopped by addition of 0.1 ml of 6N sulfuric acid (or 0.25 N sodium hydroxide).
(§4) After the reaction was stopped, the reaction solution was incubated at 60° C. for 10 minutes, thereby converting acetolactate contained in the reaction solution to acetoin.
(§5) Then, to quantify acetoin contained in the reaction solution, 1 ml of 0.5% (w/v) creatine and 1 ml of 5% (w/v) α-naphthol dissolved in 2.5 N sodium hydroxide was added to the reaction solution, followed by incubation at 37° C. for 10 minutes. Acetoin was then quantified by color comparison of the absorbance (at 525 nm) of the reaction solution, thereby evaluating ALS activity. In addition, since the reaction solution contained a small amount of sodium pyruvate, reaction time 0 was used as control.
(§6) Using the enzyme solution containing the mutant ALS protein, sensitivity of the mutant ALS protein to bispyribac-sodium, chlorsulfuron and imazaquin was examined. […]

[2] = system: mutant ALS protein of Vg line; assay: as above; type: biochemical, Oryza sativa var. Kinmaze; details: I50 of the resistant mutant divided by I50 of the wild type
Procedure: as §1, §2, §3, §4, §5, §6

[3] = target: T2, GST fusion P171H/R172S mutant ALS protein (Oryza sativa subsp. japonica, UniProt Q6K2E8, P171H/R172S); assay: Herbicide sensitivity of ALS protein expressed in E. coli (crude enzyme solution), P171H/R172S; type: biochemical, rice (Oryza sativa var. Kinmaze); details: for RS ratio/ predicted RS ratio / Predicted RS ratio: P171H/R172S mutant; for RS ratio: P171H/R172S mutant vs wild type; for Predicted RS ratio: product of RS ratios of the 1-point mutants
T2 construct: made in house; host or cells: E. coli JM109, pGEX-2T(ALS P171H, R172S mutant); crude supernatant
T2 sequence (Q6K2E8 44-644 P171H/R172S): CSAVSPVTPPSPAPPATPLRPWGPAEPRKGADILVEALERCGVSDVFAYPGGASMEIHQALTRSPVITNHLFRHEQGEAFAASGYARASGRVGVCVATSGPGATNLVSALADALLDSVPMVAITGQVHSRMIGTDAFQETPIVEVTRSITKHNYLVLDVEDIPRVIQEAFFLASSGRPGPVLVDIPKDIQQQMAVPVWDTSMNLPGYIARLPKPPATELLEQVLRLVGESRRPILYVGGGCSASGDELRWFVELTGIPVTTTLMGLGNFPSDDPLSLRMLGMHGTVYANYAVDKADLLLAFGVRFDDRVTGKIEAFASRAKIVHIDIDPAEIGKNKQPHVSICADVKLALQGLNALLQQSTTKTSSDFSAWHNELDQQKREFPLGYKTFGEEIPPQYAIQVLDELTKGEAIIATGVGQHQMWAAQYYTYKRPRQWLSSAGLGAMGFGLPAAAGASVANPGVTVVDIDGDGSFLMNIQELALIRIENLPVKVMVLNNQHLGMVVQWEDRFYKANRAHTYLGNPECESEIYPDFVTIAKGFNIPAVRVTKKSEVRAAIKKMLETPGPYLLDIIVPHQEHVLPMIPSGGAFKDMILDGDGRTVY
Procedure: as §3, §4, §5
E. coli transformed with pGEX-2T(ALS-wild) constructed in Example 3(5), E. coli transformed with pGEX-2T(ALS-W548L mutant) constructed in Example 5, E. coli transformed with pGEX-2T(ALS-S627I mutant) constructed in Example 5, E. coli transformed with pGEX-2T(ALS P171H mutant) constructed in Example 6, E. coli transformed with pGEX-2T(ALS R172S mutant) constructed in Example 6, E. coli transformed with pGEX-2T(ALS P171H, R172S mutant) constructed in Example 7, E. coli transformed with pGEX-2T(ALS-P171H, W548L mutant) constructed in Example 8, E. coli transformed with pGEX-2T(ALS-P171H, S627I mutant) constructed in Example 8, and E. coli transformed with pGEX-2T(ALS-P171H, W548L, S627I mutant) constructed in Example 9 were respectively shake-cultured (pre-culture) at 27° C. in 2 ml of LB liquid medium containing ampicillin. These types of E. coli were respectively cultured in 250 ml of LB liquid medium containing ampicillin using 1 ml of the pre-culture solution. After culturing overnight, 1 mM IPTG was added to the media, and then culturing was performed for a further 3 to 4 hours, so that the expression of GST fusion protein was induced. In addition, the cells were stored at −80° C. after washing.
Preparation and purification of ALS from E. coli were performed by the following method. First, the pellet of the transformant E. coli stored at −80° C. was suspended in ALS extraction buffer (potassium phosphate buffer (pH 7.5) containing 30% glycerol and 0.5 mM MgCl2). Specifically, 2.5 ml of the buffer was added to the pellet obtained from 50 ml of the culture solution. The suspension was subjected to ultrasonication (Heat Systems-Ultrasonics, Sonicator W-225R, micro chip, output control 8, interval of approximately 1 second, twice (40 seconds each)), and subjected to centrifugation at 15000×g, 4° C. for 20 minutes, thereby obtaining the supernatant as a crude enzyme solution.
Herbicide sensitivity of the wild type ALS protein and that of mutant ALS protein were examined using the 9 types of crude enzyme solutions obtained in Example 10. Herbicide sensitivity test was performed according to procedures almost the same as those in Example 2. However, in this example, reaction temperature was 37° C., reaction time was 30 minutes, and 10 mM valine was added to the reaction solution to inhibit ALS activity derived from E. coli. Further, three types of herbicides, bispyribac-sodium, pyrithiobac-sodium, and pyriminobac, were used as PC herbicides; chlorsulfuron was used as a sulfonylurea herbicide; and imazaquin was used as an imidazolinon herbicide. […]

Row | Compound | IC50 [1] | RS ratio Vg [2] | IC50 [3] | RS ratio/ predicted RS ratio [3] | RS ratio [3] | Predicted RS ratio [3]
1 | COc1cc(OC)nc(Oc2cccc(Oc3nc(OC)cc(OC)n3)c2C(=O)O)n1 [bispyribac-sodium] | 97.2 nM | 17.3 | 0.048 µM | 0.89 | 7.6 | 8.5
2 | COc1nc(C)nc(NC(=O)NS(=O)(=O)c2ccccc2Cl)n1 [chlorsulfuron] | 495 nM | 28.6 | 5.5 µM | 5.8 | 420 | 72
3 | CC(C)C1(C)N=C(c2nc3ccccc3cc2C(=O)O)NC1=O (stereo not drawn) [imazaquin] | 44100 nM | 29.8 | 3.9 µM | 1.2 | 1.8 | 1.5
